According to ChEMBL document CHEMBL4321836, “Discovery of BAY-298 and BAY-899: Tetrahydro-1,6-naphthyridine-Based, Potent, and Selective Antagonists of the Luteinizing Hormone Receptor Which Reduce Sex Hormone Levels in Vivo” (J Med Chem, 2019):

Tests used:
[1] = target: Motilin receptor (Homo sapiens) (UniProt O43193); test: Agonist activity at human Motilin receptor expressed in CHO-K1 cells at 10 uM by fluorimetric method relative to control; type: cell-based
[2] = Maximum oral bioavailability in rat liver microsomes based well stirred liver model at 1 uM measured after 2 to 60 mins in presence of glucose-6-phosphate by LC-MS/MS analysis; type: ADME, Microsome; conditions: read-out: Fmax
[3] = target: P2Y purinoceptor 2 (Homo sapiens) (UniProt P41231); test: Antagonist activity at human P2Y2 receptor expressed in human 1321N1 cells at 10 uM by fluorimetric method relative to control; type: cell-based; parameters: scale not given: the % may be the effect or the level left
Chain of P2Y purinoceptor 2 (Homo sapiens) (P41231 whole entry): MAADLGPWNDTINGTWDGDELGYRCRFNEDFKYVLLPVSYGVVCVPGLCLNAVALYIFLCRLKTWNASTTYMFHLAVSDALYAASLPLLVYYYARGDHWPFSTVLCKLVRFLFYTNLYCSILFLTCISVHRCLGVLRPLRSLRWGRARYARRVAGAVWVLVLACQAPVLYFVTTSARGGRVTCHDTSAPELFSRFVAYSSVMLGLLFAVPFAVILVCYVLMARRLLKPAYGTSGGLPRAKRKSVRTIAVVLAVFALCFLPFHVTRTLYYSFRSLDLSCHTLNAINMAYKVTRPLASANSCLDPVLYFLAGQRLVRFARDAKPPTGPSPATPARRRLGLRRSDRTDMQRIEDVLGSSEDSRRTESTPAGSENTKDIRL

[4] = target: T1, Adenosine receptor A2b (Homo sapiens) (UniProt P29275); test: Agonist activity at human A2B receptor expressed in HEK293 cells at 10 uM after 10 mins by HTRF assay relative to control; type: cell-based
T1 sequence (whole entry): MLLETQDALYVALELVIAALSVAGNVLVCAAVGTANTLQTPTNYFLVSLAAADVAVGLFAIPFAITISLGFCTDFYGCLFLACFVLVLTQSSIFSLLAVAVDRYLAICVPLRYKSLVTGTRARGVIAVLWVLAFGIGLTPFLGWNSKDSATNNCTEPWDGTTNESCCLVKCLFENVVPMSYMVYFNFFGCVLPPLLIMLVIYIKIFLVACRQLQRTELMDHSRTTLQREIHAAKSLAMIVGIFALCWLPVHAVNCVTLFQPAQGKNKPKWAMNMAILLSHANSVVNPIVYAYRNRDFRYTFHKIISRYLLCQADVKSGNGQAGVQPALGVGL

[5] = target: Histamine H1 receptor (Homo sapiens) (UniProt P35367); test: Antagonist activity at human histamine H1 receptor expressed in HEK293 cells at 10 uM by Fluorimetric method relative to control; type: cell-based; parameters: scale not given: the % may be the effect or the level left
Chain of Histamine H1 receptor (Homo sapiens) (P35367 whole entry): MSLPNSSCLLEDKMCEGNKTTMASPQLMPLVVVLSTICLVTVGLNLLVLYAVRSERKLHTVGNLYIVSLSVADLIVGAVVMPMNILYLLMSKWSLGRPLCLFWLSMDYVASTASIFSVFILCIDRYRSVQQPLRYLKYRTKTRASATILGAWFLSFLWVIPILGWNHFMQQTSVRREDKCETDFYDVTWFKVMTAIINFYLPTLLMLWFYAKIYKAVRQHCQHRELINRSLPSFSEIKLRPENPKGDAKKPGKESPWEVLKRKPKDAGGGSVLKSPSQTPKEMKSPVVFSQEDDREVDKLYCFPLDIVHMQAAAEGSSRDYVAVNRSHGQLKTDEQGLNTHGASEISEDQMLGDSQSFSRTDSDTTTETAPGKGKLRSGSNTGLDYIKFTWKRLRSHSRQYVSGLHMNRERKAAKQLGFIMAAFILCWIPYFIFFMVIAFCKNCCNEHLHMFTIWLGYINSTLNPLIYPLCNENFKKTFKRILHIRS

[6] = target: T2, Follicle-stimulating hormone receptor (Homo sapiens, UniProt P23945); test: Antagonist activity at human follicle stimulating hormone receptor assessed as reduction in agonist-induced cAMP production preincubated for 20 mins followed by agonist solution addition and measured after 120 mins by cell based TR-FRET assay; type: functional
T2 sequence (P23945 whole entry): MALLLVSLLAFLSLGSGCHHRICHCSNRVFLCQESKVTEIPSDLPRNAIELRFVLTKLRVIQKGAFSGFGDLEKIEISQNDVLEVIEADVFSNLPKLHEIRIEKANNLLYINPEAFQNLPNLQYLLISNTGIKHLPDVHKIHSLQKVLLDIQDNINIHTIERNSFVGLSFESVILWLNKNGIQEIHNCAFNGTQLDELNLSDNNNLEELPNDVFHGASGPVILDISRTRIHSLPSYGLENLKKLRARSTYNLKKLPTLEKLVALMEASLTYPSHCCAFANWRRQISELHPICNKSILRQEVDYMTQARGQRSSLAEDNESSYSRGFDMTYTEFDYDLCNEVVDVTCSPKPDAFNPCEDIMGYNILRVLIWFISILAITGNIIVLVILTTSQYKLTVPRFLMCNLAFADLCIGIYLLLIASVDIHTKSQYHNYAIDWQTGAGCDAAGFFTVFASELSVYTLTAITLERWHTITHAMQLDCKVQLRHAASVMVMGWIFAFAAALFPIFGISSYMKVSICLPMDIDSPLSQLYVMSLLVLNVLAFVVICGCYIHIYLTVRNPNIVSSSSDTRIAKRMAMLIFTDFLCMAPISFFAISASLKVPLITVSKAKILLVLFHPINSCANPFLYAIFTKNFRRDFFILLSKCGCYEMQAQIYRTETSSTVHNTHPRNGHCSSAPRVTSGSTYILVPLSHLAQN

[7] = target: T3, Alpha-2A adrenergic receptor (Homo sapiens) (UniProt P08913); test: Agonist activity at human alpha2A adrenergic receptor expressed in Chem-1 cells at 10 uM by fluorimetric method relative to control; type: cell-based
T3 sequence (whole entry): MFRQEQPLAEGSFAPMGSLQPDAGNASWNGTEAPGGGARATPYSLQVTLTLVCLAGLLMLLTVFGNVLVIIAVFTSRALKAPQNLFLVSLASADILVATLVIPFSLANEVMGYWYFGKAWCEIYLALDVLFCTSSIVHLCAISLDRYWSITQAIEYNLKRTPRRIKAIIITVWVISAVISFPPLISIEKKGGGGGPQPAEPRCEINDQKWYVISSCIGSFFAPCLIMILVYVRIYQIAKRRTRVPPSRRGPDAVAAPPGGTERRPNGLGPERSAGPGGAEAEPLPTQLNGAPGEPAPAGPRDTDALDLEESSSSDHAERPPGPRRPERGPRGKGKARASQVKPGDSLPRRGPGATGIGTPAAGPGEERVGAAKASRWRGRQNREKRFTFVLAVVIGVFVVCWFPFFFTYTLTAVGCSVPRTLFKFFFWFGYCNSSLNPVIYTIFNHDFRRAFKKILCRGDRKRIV

[8] = target: T4, Alpha-1A adrenergic receptor (Homo sapiens) (UniProt P35348); test: Agonist activity at human alpha1A adrenergic receptor expressed in CHO-K1 cells at 10 uM by fluorimetric method relative to control; type: cell-based
T4 sequence (whole entry): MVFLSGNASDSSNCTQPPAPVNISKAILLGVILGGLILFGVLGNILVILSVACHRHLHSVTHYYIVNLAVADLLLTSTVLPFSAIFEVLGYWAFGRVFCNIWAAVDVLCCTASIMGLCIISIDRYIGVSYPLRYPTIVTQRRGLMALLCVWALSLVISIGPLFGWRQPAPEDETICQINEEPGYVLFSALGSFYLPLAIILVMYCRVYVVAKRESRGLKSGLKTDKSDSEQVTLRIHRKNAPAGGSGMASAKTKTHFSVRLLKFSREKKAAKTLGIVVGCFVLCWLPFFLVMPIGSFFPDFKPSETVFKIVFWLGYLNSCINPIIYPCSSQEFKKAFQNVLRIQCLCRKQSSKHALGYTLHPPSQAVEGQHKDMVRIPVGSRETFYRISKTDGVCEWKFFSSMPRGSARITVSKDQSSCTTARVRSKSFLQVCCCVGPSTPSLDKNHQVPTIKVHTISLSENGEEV

[9] = Apparent permeability across apical to basolateral side in human Caco2 cells at 2 uM after 2 hrs by LC-MS/MS analysis; type: ADME, cell-based; conditions: Caco-2
[10] = target: Histamine H3 receptor (Homo sapiens) (UniProt Q9Y5N1); test: Agonist activity at human histamine H3 receptor expressed in CHO-K1 cells at 10 uM after 10 mins by HTRF assay relative to control; type: cell-based
Chain of Histamine H3 receptor (Homo sapiens) (Q9Y5N1 whole entry): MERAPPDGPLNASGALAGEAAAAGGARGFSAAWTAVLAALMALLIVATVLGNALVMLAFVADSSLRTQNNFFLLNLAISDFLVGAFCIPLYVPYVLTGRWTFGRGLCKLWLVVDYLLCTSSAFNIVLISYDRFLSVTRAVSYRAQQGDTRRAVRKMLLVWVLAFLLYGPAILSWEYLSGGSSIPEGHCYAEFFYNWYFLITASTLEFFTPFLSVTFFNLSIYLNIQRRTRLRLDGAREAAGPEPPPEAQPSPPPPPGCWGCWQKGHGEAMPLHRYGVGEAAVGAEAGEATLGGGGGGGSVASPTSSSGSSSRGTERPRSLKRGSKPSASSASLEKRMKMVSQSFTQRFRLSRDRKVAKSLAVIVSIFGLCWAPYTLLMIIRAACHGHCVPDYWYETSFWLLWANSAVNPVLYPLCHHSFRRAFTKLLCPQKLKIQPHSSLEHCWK

[11] = target: Lutropin-choriogonadotropic hormone receptor (Rattus norvegicus, UniProt P16235); test: Antagonist activity at rat luteinizing hormone receptor expressed in rat ovary granulosa GLHR15 cell suspension assessed as reduction in agonist-induced cAMP production preincubated for 30 mins followed by agonist solution addition after 30 mins by cell based TR-FRET assay; type: functional
Chain of Lutropin-choriogonadotropic hormone receptor (P16235 whole entry): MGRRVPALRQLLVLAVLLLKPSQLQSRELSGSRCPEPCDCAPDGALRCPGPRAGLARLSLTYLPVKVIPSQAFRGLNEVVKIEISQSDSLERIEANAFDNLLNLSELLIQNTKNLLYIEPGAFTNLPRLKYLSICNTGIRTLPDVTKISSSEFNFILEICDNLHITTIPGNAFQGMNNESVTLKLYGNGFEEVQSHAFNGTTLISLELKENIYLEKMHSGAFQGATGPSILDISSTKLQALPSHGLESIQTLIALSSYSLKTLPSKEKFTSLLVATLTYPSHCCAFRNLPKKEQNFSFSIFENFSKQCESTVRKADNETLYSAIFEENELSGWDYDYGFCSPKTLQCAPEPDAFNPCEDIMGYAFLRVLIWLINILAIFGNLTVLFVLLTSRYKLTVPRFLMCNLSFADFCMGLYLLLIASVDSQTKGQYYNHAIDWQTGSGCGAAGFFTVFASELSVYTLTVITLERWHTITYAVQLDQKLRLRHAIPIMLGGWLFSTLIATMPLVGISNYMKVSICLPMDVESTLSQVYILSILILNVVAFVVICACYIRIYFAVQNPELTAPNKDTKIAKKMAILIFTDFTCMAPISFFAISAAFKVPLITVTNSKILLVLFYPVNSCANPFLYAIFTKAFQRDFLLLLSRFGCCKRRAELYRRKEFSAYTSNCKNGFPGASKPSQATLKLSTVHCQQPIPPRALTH

Chain of Motilin receptor (Homo sapiens) (O43193 whole entry): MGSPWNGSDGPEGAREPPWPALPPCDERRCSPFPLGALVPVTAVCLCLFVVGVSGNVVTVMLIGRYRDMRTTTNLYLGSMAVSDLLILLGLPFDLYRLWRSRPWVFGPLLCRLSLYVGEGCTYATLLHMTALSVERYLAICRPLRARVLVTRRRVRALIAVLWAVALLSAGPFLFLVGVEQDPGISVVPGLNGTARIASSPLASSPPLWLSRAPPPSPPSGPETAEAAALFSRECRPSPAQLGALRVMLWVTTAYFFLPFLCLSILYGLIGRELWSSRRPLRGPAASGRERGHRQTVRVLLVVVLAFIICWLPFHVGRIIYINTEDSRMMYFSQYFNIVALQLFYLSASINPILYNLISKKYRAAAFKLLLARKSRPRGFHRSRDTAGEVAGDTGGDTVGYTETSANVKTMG

Activity [1] [%] | Fh at 1 µM [2] [%] | Activity [3] [%] | Activity [4] [%] | Activity [5] [%] | IC50 [6] [nM] | Activity [7] [%] | Activity [8] [%] | Papp A→B at 2 h, 2 µM [9] [×10⁻⁶ cm/s] | Activity [10] [%] | IC50 [11] [nM] | Compound
< 70 | 94 | < 70 | < 70 | < 70 | > 16000 | < 70 | < 70 | 1.5 | < 70 | 23 | O=C(Nc1ccc(Oc2ccc(F)cc2)cc1)N1CCc2ncccc2[C@@H]1c1ccc(Cl)cc1
< 70 | 95 | < 70 | < 70 | < 70 | > 16000 | < 70 | < 70 | 8.9 | < 70 | 46 | O=C(Nc1cnc(Oc2ccc(F)cc2)nc1)N1CCc2ncccc2[C@@H]1c1ccc(F)cc1 [BAY-899]
